Read-outs that look alike come from different tables or passages of the source. Where only a bound is given, the exact number is not on record here.

Consider 4 compounds from patent US20090186839A1, “Model for studying the role of genes in chemoresistance” (Cold Spring Harbor Laboratory, priority 2003, published 2009).

The subject of test [1] is Eμ-myc/Akt lymphomas. Briefly: In vivo chemotherapy of mice bearing Akt lymphomas. Further details: species or system mouse.
Text: (§2) Tumor cells were transplanted from the Akt-expressing tumors and from control tumors (Eμ-myc, arf^−/−, p53^+/+) into syngeneic, non-transgenic 6-10 week old C57BL/6 mice by tail vein injection [10^6 viable lymphoma cells in phosphate-buffered saline (PBS)] and recipient mice were monitored for tumor formation twice a week by palpation of the pre-scapular and cervical lymph-nodes. […] Following treatments, mice were monitored for immediate response and time to relapse by lymph node palpation and by blood smears (by tail artery bleeding) stained according to a modified Wright's protocol using the LeukoStat kit (Fisher Scientific, Pittsburgh, Pa.). The data were statistically evaluated.
In test [2] the test system is Eμ-myc/ARF−/− control lymphomas. Briefly: In vivo chemotherapy of mice bearing control (ARF-null) lymphomas. On the set-up: species or system mouse. The note with it: CTX 300 mg/kg i.p.
Text: as §2
A ‘complete remission’ (CR) was defined as absence of any palpable tumor and the absence of leukemia, as examined by blood smears. ‘Tumor free survival’ was defined as the time between treatment and reappearance of a well-palpable lymphoma (Schmitt, C. A., et al., “Genetic analysis of chemoresistance in primary murine lymphomas,” Nat. Med. 6: 1029-1035 (2000)). ‘Overall survival’ was defined as the time between treatment and progression to a terminal stage at which the animals were sacrificed. Tumor free and overall survival data were analyzed in the Kaplan-Meier format using the log-rank (Mantel-Cox) test for statistical significance. […]
Test [3] concerns Eμ-Myc/eIF4E lymphomas. The experiment in a line: In vivo chemotherapy of mice bearing eIF4E lymphomas. As to conditions: for animals that had developed terminal lymphoma / reversal of DXR resistance / sensitization to DXR: Eμ-Myc/eIF4E tumors, silvestrol 0.2 mg/kg daily 5 days i.p.; for animals that had developed terminal lymphoma: by the 40 day time point, DXR once 10 mg/kg. On the set-up: species or system mouse. An excerpt:
A ‘complete remission’ (CR) was defined as absence of any palpable tumor and the absence of leukemia, as examined by blood smears. ‘Tumor free survival’ was defined as the time between treatment and reappearance of a well-palpable lymphoma (Schmitt, C. A., et al., “Genetic analysis of chemoresistance in primary murine lymphomas,” Nat. Med. 6: 1029-1035 (2000)). ‘Overall survival’ was defined as the time between treatment and progression to a terminal stage at which the animals were sacrificed. Tumor free and overall survival data were analyzed in the Kaplan-Meier format using the log-rank (Mantel-Cox) test for statistical significance. Whole body fluorescence imaging of living animals was performed as described (Schmitt, C. A., et al., “Dissecting p53 tumor suppressor functions in vivo,” Cancer Cell 1: 289-298 (2002) and Yang, M., et al., “Whole-body optical imaging of green fluorescent protein-expressing tumors and metastases.” Proc. Natl. Acad. Sci. USA 97: 1206-1211 (2000)).
Doxorubicin (Sigma) and cyclophosphamide (Sigma) were dissolved in saline. In treatment studies, control lymphomas were ARF-null tumors arising in an Eμ-myc/ARF−/− background (Schmitt, C. A., et al., “INK4a/ARF mutations accelerate lymphomagenesis and promote chemoresistance by disabling p53,” Genes Dev. 13: 2670-2677 (1999)).
Primary tumors arising in Eμ-Myc/eIF4E mice were harvested and a total of 2×10^6 secondary lymphoma cells were injected into the tail veins of 6-8 week old female C57BL/6 (non-transgenic) mice. Upon tumor formation of palpable secondary tumors, mice were treated with i.p. administration of drug. The treatment schedule included an injection with DXR (once at 10 mg/kg), silvestrol (0.2 mg/kg daily for 5 days) or various combinations. DXR and silvestrol were diluted in 5.2% PEG400/5.2% Tween 80 immediately prior to i.p. injection. In combination studies, silvestrol was administered once daily for 5 consecutive days, with DXR administered on day 2. Mice were then palpated regularly and monitored for the disappearance or recurrence of tumors.
Data are presented as Kaplan-Meier plots using the log-rank (Mantel-Cox) test for statistical significance (SigmaStat software) in FIG. 29, showing the tumor free survival/time to relapse, and FIG. 30, showing the overall survival/time. Time to relapse for mice that were never tumor free was scored as ‘0’ days. Tumor free survival was defined as the time between treatment and reappearance of a palpable lymphoma. Overall survival was defined as the time between treatment and progression to a terminal stage at which the animals were sacrificed. […] With either compound alone, approximately 80% of the animals had developed terminal lymphoma by the 40 day time point. With a combination treatment of silvestrol and DXR, less than 30% of the animals had developed terminal lymphoma by the end test point, well over 60 days.

Test [4] deals with Eμ-myc/PTEN+/− tumors. The experiment in a line: In vivo chemotherapy of mice bearing PTEN+/− lymphomas. On the set-up: species or system mouse. As to conditions: for reversal of DXR resistance / sensitization to DXR: RAP 4 mg/kg, silvestrol 0.2 mg/kg daily 5 days i.p. As for the experimental part:
Primary tumors arising in Eμ-myc/PTEN+/− and Ep-myc/PTEN+/− mice were harvested and injected into C57BL/6 (non-transgenic) mice. Upon tumor formation of palpable secondary tumors, mice were treated with a single i.p. administration of drug. The treatment schedule included an injection with either DXR ([…] in 0.9% saline), CTX (300 mg/kg in 0.9% saline), RAP (4 mg/kg in 0.9% H2O with 5% PEG/TWEEN), or a combination thereof (d1: DXR or CTX, d2: DXR or CTX and RAP, d3-5: DXR pr CTX). Mice were then palpated twice weekly for disappearance or recurrence of tumors. Data are presented as Kaplan-Meier plots in FIG. 19, and show the tumor free survival/time to relapse. Time to relapse for mice that were never tumor free was scored as ‘0’ days. […] The bottom panel has an equivalent analysis for treatment with CTX, RAP, and RAP+CTX combination.
Primary tumors arising in PTEN+/−Eμ-Myc mice were harvested and a total of 2×10^6 secondary lymphoma cells were injected into the tail veins of 6-8 week old female C57BL/6 (non-transgenic) mice. Upon tumor formation of palpable secondary tumors, mice were treated with i.p. administration of drug. The treatment schedule included an injection with DXR (once at 10 mg/kg), RAP (4 mg/kg daily for 5 days), or silvestrol (0.2 mg/kg daily for 5 days). RAP, DXR, and silvestrol were diluted in 5.2% PEG400/5.2% Tween 80 immediately prior to i.p. injection.
The ability of rocaglates to work in synergistic combination with other cytotoxic agents has not previously been tested. Silvestrol was therefore tested in combination with DXR, where silvestrol or RAP were administered once daily for 5 consecutive days, with DXR administered on day 2. Mice were then palpated twice weekly for the disappearance or recurrence of tumors.
Data are presented as Kaplan-Meier plots using the log-rank (Mantel-Cox) test for statistical significance (SigmaStat software) in FIG. 28, and show the tumor free survival/time to relapse. Time to relapse for mice that were never tumor free was scored as ‘0’ days. […]

Test [5] deals with HeLa cells. Briefly: [35S]-methionine incorporation into proteins (translation inhibition), 1 h incubation. The test is classed as cell-based. The note with it: read-out: IC50, inhibition of [35S]-methionine incorporation into proteins. As for the experimental part:
Results are the average of three experiments with standard error of the mean shown.
(§1) The ability of rocaglates to induce apoptosis and inhibit protein synthesis was investigated. […] Jurkat cells were exposed to silvestrol or FA and translation inhibition and apoptosis induction were monitored. Translation initiation was measured as the inhibition of [^35S]-methionine incorporation into proteins in a dose-dependent manner. Apoptosis induction was measured as the percentage of tagged living cells measured by flow cytometry and expressed relative to vehicle treated cells.
For translation inhibition experiments, HeLa cells were incubated for 1 h with 10 μM anisomycin, 5 μM of the peptide FMRFA, 0.4 μM silvestrol, or vehicle (MeOH). Cells were then washed with PBS, and incubated with media lacking compound for the indicated times. Ten minutes before harvesting, [^35S]-methionine was added to the culture. The rate of [^35S]-methionine incorporation into TCA-insoluble material was measured and was expressed relative to vehicle (MeOH) treated cells.

Test [6] has as its target eIF4A (Homo sapiens, UniProt P60842). Briefly: Cross-linking experiments, eIF4A binding to mRNA. The test is classed as biochemical. As to conditions: data not shown. An excerpt:
Inhibition of translation initiation induces apoptosis (Li et al., 2002, Mol. Cell. Biol. 22, 2853-2861; Polunovsky et al., 2000, J. Biol. Chem. 275, 24776-24780), although the precise mechanism by which this event is triggered is not fully understood. One hypothesis is that changes in the levels or activity of eIF4F mediate the translational regulation of specific genes involved in survival and apoptosis. Gene specific translational control is thought to be mediated by the amount of secondary structure within the 5′ untranslated regions of mRNAs which dictates the eIF4Ac-requirement for ribosome recruitment (Svitkin et al., 2001, RNA 7, 382-394).

In test [7] the test system is Jurkat cells. The experiment in a line: [35S]-methionine incorporation rate after 13 h silvestrol. The note with it: Homo sapiens, 13 h incubation, read-out: IC50, inhibition of protein synthesis. The test is classed as cell-based. As for the experimental part: Jurkat cells were incubated with the indicated silvestrol concentrations for 13 h after which time the rate of [^35S]-methionine incorporation or the percentage of living cells was measured. [^35S]-methionine was added 10 minutes before the end of the incubation period and the rate of incorporation is expressed relative to vehicle (MeOH) treated cells. Results are the average of two experiments with the error of the mean shown. The percentage of living cells was determined by flow cytometry following staining of the cells with Annexin V and propidium iodide. The percentage of living cells is expressed relative to vehicle (MeOH) treated and the results are the average of three experiments with the error of the mean shown.
Jurkat cells were incubated with the indicated silvestrol concentrations for 13 h after which time the rate of [^35S]-methionine incorporation or the percentage of living cells was measured. [^35S]-methionine was added 10 min. before the end of the incubation period and the rate of incorporation is measured relative to vehicle (MeOH) treated cells. The percentage of living cells was determined by flow cytometry following staining of the cells with Annexin V and propidium iodide. Silvestrol induced apoptosis in 50% of Jurkat cells following 13 hr exposure (FIG. 27). […]

Test [8] has as its system Jurkat cells. Briefly: Apoptosis / living cells by flow cytometry (Annexin V, propidium iodide). The note with it: 13 hr exposure, concentration not given. The test is classed as cell-based. As for the experimental part: Jurkat cells were incubated with the indicated silvestrol concentrations for 13 h after which time the rate of [^35S]-methionine incorporation or the percentage of living cells was measured. [^35S]-methionine was added 10 minutes before the end of the incubation period and the rate of incorporation is expressed relative to vehicle (MeOH) treated cells. Results are the average of two experiments with the error of the mean shown. The percentage of living cells was determined by flow cytometry following staining of the cells with Annexin V and propidium iodide. […]
as §1
Jurkat cells were incubated with the indicated silvestrol concentrations for 13 h after which time the rate of [^35S]-methionine incorporation or the percentage of living cells was measured. [^35S]-methionine was added 10 min. before the end of the incubation period and the rate of incorporation is measured relative to vehicle (MeOH) treated cells. […]

Sequence of eIF4A (P60842 whole entry, species assumed): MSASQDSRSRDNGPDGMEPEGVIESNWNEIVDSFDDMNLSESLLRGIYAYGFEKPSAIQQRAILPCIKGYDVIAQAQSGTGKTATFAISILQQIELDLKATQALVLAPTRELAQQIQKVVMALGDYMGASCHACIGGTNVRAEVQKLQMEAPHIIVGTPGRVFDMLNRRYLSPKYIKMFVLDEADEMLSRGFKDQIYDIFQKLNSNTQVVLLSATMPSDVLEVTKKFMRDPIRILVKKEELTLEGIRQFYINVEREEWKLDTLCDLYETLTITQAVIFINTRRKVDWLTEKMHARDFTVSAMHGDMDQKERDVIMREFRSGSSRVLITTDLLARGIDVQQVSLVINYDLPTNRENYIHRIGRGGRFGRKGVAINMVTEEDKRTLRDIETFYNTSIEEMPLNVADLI

`O=P1(N(CCCl)CCCl)NCCCO1` (centres unmarked) [CTX, cyclophosphamide]: the duration of remissions result in test [1] (Akt lymphomas, CTX 300 mg/kg i.p.) was “less than 20 days”. Also, the “mice achieving remissions lasting more than 60 days” value in test [1] (Akt lymphomas, CTX 300 mg/kg, RAP 4 mg/kg x 5 d) was “none”. Besides, in test [2], the complete remission result is recorded as “invariably entered a complete remission” and the “mice remaining tumor free after 100 days” value was over 50%.
For the compound `COc1cccc2c1C(=O)c1c(O)c3c(c(O)c1C2=O)C[C@@](O)(C(=O)CO)C[C@@H]3O[C@H]1C[C@H](N)[C@H](O)[C@H](C)O1` [DXR, doxorubicin], the “tumor free and overall survival relative to control lymphomas” value in test [1] (Akt lymphomas, DXR 10 mg/kg i.p.) was “substantial reductions in tumor free and overall survival”. Besides, in test [1] (Akt-GFP secondary tumors, day 21 post treatment), the “whole body GFP imaging of tumors” value was “sizable tumors at several sites”. The “animals that had developed terminal lymphoma” value in test [3] is listed as “approximately 80%”. In addition, the “tumor response to therapy” value in test [3] (eIF4E lymphomas) was “highly resistant to DXR therapy”; in test [4] (DXR) it was “resistant to DXR”.
In the case of `COC(=O)[C@H]1[C@@H](OC=O)[C@@]2(O)c3c(OC)cc(OC)cc3O[C@@]2(c2ccc(OC)cc2)[C@@H]1c1ccccc1` [FA, 1-O-formylaglafoline], the IC50 in test [5] (1 h incubation) was about 0.1 µM. Besides, the “effect on ability of eIF4A to bind mRNA” value in test [6] was “stimulate the ability of eIF4A to bind mRNA”.
On to `COC(=O)[C@H]1[C@@H](O)[C@@]2(O)c3c(OC)cc(O[C@@H]4O[C@@H]([C@H](O)CO)CO[C@H]4OC)cc3O[C@@]2(c2ccc(OC)cc2)[C@@H]1c1ccccc1` [silvestrol], for which the IC50 in test [5] (Homo sapiens, HeLa, 1 h) stood at 0.02 µM; in test [7], 0.001 µM. Also, the “cells in which apoptosis was induced” value in test [8] is reported as 50%. The “effect on ability of eIF4A to bind mRNA” value in test [6] is given as “stimulate the ability of eIF4A to bind mRNA”. Also, the “animals that had developed terminal lymphoma” value in test [3] is given as “approximately 80%”. Also, the “reversal of DXR resistance / sensitization to DXR” value is “reversed this drug resistance” in test [3], “sensitizes Eμ-Myc/eIF4E tumors to the effects of DXR” in test [3] (listed as Silvestrol), “reverse this drug resistance” in test [4] and “sensitizes PTEN^+/−Eμ-Myc tumors to the effects of doxorubicin” in test [4] (listed as Silvestrol).
